Assay results reported in patent US4419348A, “Anthracycline glycoside compositions, their use and preparation” (priority 1981, dated 1983).
“Also recorded” adds a separate entry of the source. Where a name gives a salt, the structure may show the parent alone.

How the values were obtained:
[1] = Electron microscopy of cardiac tissue (cardiotoxicity); assay type: in vivo, DBA/2 mice; conditions: 15 mg/kg i.v.; day three, five and seven; listed as free Adriamycin, hydrochloride
Description: To determine whether the reduced cardiac uptake of Adriamycin in cardiolipin complex encapsulated liposomes prevented cardiotoxicity, electron microscope studies of this organ were performed. DBA/2 mice were injected i.v. with free drug or drug entrapped in cardiolipin complex encapsulated liposomes at a dose of 15 mg/kg. Three mice in each group were sacrificed by cervical dislocation on day three, five and seven and hearts were immediately removed and placed in physiological saline. The apex of the left ventricle with part of the septum was dissected out and minced into one cubic mm blocks and fixed in 2.5% glutaraldehyde buffered with 0.1 M cacodylate, pH 7.2 for two hours at room temperature. The specimens were rinsed in buffer, osmicated in Bennett and Luft's collidin buffered osmium tetroxide, dehydrated in graded ethanols and acetone, and embedded in Epon. For electron microscopy, preliminary 1 μm Epon sections were stained with alkaline toluidine blue and appropriate areas were chosen for ultrathin sectioning, following which random sections were taken on 200 mesh copper grids and stained with uranyl acetate and lead citrate. A JEOL 100 S Electron microscope at an accelerating voltage of 80 KeV was utilized for viewing the sections.

[2] = system: murine P388 ascitic leukemia; test: Antitumor activity against P388 ascitic leukemia, survival; assay type: in vivo, DBA/2 mice; conditions: 4 mg/kg i.p., 24 hours after 1×10^5 P388 cells i.p.
Description: To determine whether encapsulation of Adriamycin cardiolipin complex into liposomes reduced the antitumor activity of the drug, the effectiveness of liposomes-encapsulated Adriamycin cardiolipin complex against the murine P388 ascitic leukemia in DBA/2 mice was studied. Mice were injected i.p with 1×10^5 cells of P388 leukemia. Twenty-four hours after tumor implanation, mice were administered intraperitoneally free Adriamycin or cardiolipin complex-encapsulated liposome at a dose of 4 mg/kg. Control mice received 0.9% NaCl or blank liposomes representing the same concentration of lipids as used to encapsulate Adriamycin cardiolipin complex. All injections were made on 2% body weight basis. Mice were weighed on day of injection, doses of drugs were calculated on body weight basis, and the survival time of mice was recorded in days.
Mice weighing 20 to 25 g were given i.p. injections of 10^5 cells and 24 hours later free or cardiolipin complex-encapsulated liposome Adriamycin was administered.

[3] = pharmacokinetic studies; cited from earlier work
in vivo = conditions: mouse, iv, 4 mg/kg
Description: The physiologic disposition of free Adriamycin and of liposome encapsulated Adriamycin cardiolipin complex was determined in DBA/2 mice weighing 20-25 gm. Mice were injected with free Adriamycin and Adriamycin-cardiolipin complex encapsulated in liposomes via the tail vein at a dose of 4 mg/kg and at 2% body weight. At sequential time points from 5 minutes to 24 hours after drug administration, mice were bled through orbital sinus in hepanized tubes. Plasma was separated immediately and stored at -20° C. Four mice in each treatment group were killed by cervical dislocation and heart, liver, kidney, spleen, lungs and small intestine were rapidly excised, rinsed in 0.9% NaCl and stored at -20° C. until assayed.
Briefly, plasma was extracted with 5 volumes of 0.3 N HCl-50% ethanol and tissues were homogenized with 20 volumes of the acid alcohol. Plasma and tissue homogenates were centrifuged at 15,000 rpm for 10 minutes and the clear supernatant was assayed fluorometrically in a Perkin Elmer equipment at 470 nm excitation and 585 nm emission. Control tissues obtained from mice treated with blank liposomes were read similarly in the fluorometer to correct for any endogenous fluorescence. Fresh Adriamycin standards were prepared in ) 0.3 N HCl--50% ethanol each day to calculate the concentration of Adriamycin in the tissue samples.

[4] = in vivo; cited from earlier work

Row | Compound | myocardial toxic damage by electron microscopy [1] | T/C (Treated vs. Control), survival [2] | uptake by heart muscle (in words) [3] | Cmax (in vivo) | Tmax (in vivo) | cumulative dose correlated with cumulative myocardial damage [4] | cardiotoxicity (in words) [4]
1 | COc1cccc2c1C(=O)c1c(O)c3c(c(O)c1C2=O)C[C@@](O)(C(=O)CO)C[C@@H]3O[C@H]1C[C@H](N)[C@H](O)[C@H](C)O1 [Adriamycin, doxorubicin hydrochloride] | loss and fragmentation of myofilaments with concomitant clearing of organelles and swelling of sarcoplasmic areas; also recorded: degenerative changes with vacuolation of the smooth endoplasmic reticulum and loss of myofibrils; also recorded: Progression of damage could be seen with greater intensity on day 7 | 132% | taken up avidly and preferentially by heart muscle | 8300 ng/g | 30 min | > 500 mg/m^2 | 
2 | COc1cccc2c1C(=O)c1c(O)c3c(c(O)c1C2=O)C[C@@](O)(C(C)=O)C[C@@H]3O[C@H]1C[C@H](N)[C@H](O)[C@H](C)O1 [daunorubicin] |  |  |  |  |  |  | cardiotoxic effects
